Tested on: axillary (armpit) hair growth
Test: Axillary hair growth reduction in human subjects (hair length by image analysis)
Assay type: in vivo
Settings: for Hair Length (μm): Example 1 including 3% DFMO once a day to armpit, six human subjects; for % Reduction (hair length): Example 1 including 3% DFMO vs Right Guard roll-on vehicle
Protocol: Example 1, including 3% DFMO, was tested in six human subjects to determine the effectiveness of the composition for reducing hair growth. The composition was applied once a day to one armpit in a subject; Right Guard® roll-on product was applied once daily to the other armpit. The hair length measurements were made at select time intervals using a semi automated image analysis system. For these measurements, the subjects shaved both armpits and then digital images of the treatment areas (DFMO and Vehicle) were taken at 24, 48, and 72 hr later. The number of hairs measured per site ranged from 58 to 87.
The results after six weeks and 16 weeks are shown below.

[1] = after 6 weeks, 24 Hrs after shaving
[2] = after 6 weeks, 48 Hrs after shaving
[3] = after 6 weeks, 72 Hrs after shaving
[4] = after 16 weeks, 24 Hrs after shaving
[5] = after 16 weeks, 48 Hrs after shaving
[6] = after 16 weeks, 72 Hrs after shaving

NCCCC(N)(C(=O)O)C(F)F (stereo not drawn) [DFMO, α-Difluoromethylomithine]
Hair Length (μm) [1]: 274 ± 15 μm
% Reduction (hair length) [1]: 48 ± 3%
Hair Length (μm) [2]: 509 ± 26 μm
% Reduction (hair length) [2]: 49 ± 3%
Hair Length (μm) [3]: 867 ± 34 μm
% Reduction (hair length) [3]: 46 ± 2%
Hair Length (μm) [4]: 170 ± 16 μm
% Reduction (hair length) [4]: 66 ± 3%
Hair Length (μm) [5]: 273 ± 23 μm
% Reduction (hair length) [5]: 73 ± 3%
Hair Length (μm) [6]: 326 ± 24 μm
% Reduction (hair length) [6]: 75 ± 2%

Reference: US20070059264A1, “Reduction of hair growth” (priority 2005, published 2007)
